# Laboratory results: patent publication US9840500B2, “Compounds as dual inhibitors of histone methyltransferases and DNA methyltransferases” (FUNDACIÓN PARA LA INVESTIGACIÓN MÉDICA APLICADA, priority 2014, dated 2017)
# How the values were obtained:
# DNMT3B/3L = DNMT3B/3L (Homo sapiens, UniProt Q9UBC3); test: DNMT3B enzyme activity assay (chemiluminescence BPS DNMT Universal Assay Kit); format: biochemical
# Procedure: DNMT3A and DNMT3B activity assays were carried out with the chemiluminiscence BPS DNMT Universal Assay Kit (BPS#52035) using a strip 96-well plate pre-coated with DNMT substrate.
# The enzyme activity assay protocol is as follows: • Rehydrate the microwells by adding 150 μL of TBST buffer (1× Tris-buffered saline (TBS), pH 8.0, containing 0.05% Tween-20) to every well. Incubate 15 minutes at room temperature. • Dilute each purified DNMT [DNMT3A/3L (BPS#51106) or DNMT3B/3L (BPS#51109)] in 1×DNMT assay buffer 2 (BPS#52201) at 5-10 ng/μL. Keep diluted enzyme on ice until use. • Prepare 50 μL of reaction mixture consisting of 20 μL of DNMT (5-10 ng/μL), 12.5 μL of 4×DNMT assay buffer 2 (BPS#52201), 2.5 μL of S-adenosylmethionine 400 μM, test compound at concentrations ranging from 3 nM to 10 μM and H2O up to 50 μL. • Add the entire reaction mixture to the substrate coated wells. […]
# Incubate for 30 min at room temperature with slow shaking. • Wash plate three times with TBST buffer and incubate in Blocking buffer shaking on a rotating platform for 10 min. […] Immediately read luminescence using a BioTek Synergy™2 microplate reader.
# The chemiluminescence intensity data were analyzed and compared. […] Calculated IC50 values were determined using non-linear regression analysis of Sigmoidal dose-response curve generated with a four-parameters inhibition curve.
# OCI-Ly3 = test: Cell proliferation assay, OCI-Ly3 (ABC-DLBCL); format: cell-based; conditions: Homo sapiens, 48 hours of treatment, Table 3
# LOVO = test: Cell proliferation assay, LOVO (Colorectal); format: cell-based; conditions: Homo sapiens, 48 hours
# Procedure: (§1) Cell proliferation was analyzed after 48 hours of in vitro treatment using the CellTiter 96 Aqueous One Solution Cell Proliferation Assay (Promega, Madison, Wis.). This is a colorimetric method for determining the number of viable cells in proliferation.
# (§2) For the assay, suspension cells were cultured by triplicate at a density of 1×10^6 cells/ml in 96-well plates (100.000 cells/well, 100 μl/well), except for OCILY-3 and OCILY-10 cell lines which were cultured at a density of 0.5×10^6 cells/ml (50.000 cells/well, 100 μl/well) and for HepG2, Hep3B and PLC/PRF/5 cell ines which were cultured at a density of 3000 cells/well, 100 μl/well). Adherent cells were obtained from 80-90% confluent flasks and 100 μl of cells were seeded at a density of 5000 cells/well in 96-well plates by triplicate. Before addition of the compounds, adherent cells were allowed to attach to the bottom of the wells for 12 hours. […]
# (§3) After 48 hours of treatment, plates with suspension cells were centrifuged at 800 g for 10 minutes and medium was removed. […] After 1-3 hours of incubation at 37° C., absorbance was measured at 490 nm in a 96-well plate reader. The background absorbance was measured in wells with only cell line medium and solution reagent. Data was calculated as a percentage of total absorbance of treated cell/absorbance of non treated cells. […]
# WM-35 = test: Cell proliferation assay, WM-35 (Melanoma); format: cell-based; conditions: WM35, 48 hours
# Procedure: as §1, §2, §3
# H460 = test: Cell proliferation assay, H460 (non-small-cell lung cancer); format: cell-based; conditions: Homo sapiens, NCI-H460, 48 hours
# Procedure: as §1, §2, §3
# CAKI-2 = test: Cell proliferation assay, CAKI-2 (Renal); format: cell-based; conditions: Homo sapiens, 48 hours
# Procedure: as §1, §2, §3
# UM-UC-7 = test: Cell proliferation assay, UM-UC-7 (Bladder); format: cell-based; conditions: 48 hours
# Procedure: as §1, §2, §3
# MCF-7 = test: Cell proliferation assay, MCF-7 (Breast); format: cell-based; conditions: Homo sapiens, MCF7, 48 hours
# Procedure: as §1, §2, §3
# PC3 = test: Cell proliferation assay, PC3 (Prostate); format: cell-based; conditions: Homo sapiens, PC-3, 48 hours
# Procedure: as §1, §2, §3
# LAL-CUN-2 = test: Cell proliferation assay, LAL-CUN-2 (ALL); format: cell-based
# Procedure: as §1
# (§4) For the assay, suspension cells were cultured by triplicate at a density of 1×10^6 cells/ml in 96-well plates (100.000 cells/well, 100 μl/well), except for OCILY-3 and OCILY-10 cell lines which were cultured at a density of 0.5×10^6 cells/ml (50.000 cells/well, 100 μl/well) and for HepG2, Hep3B and PLC/PRF/5 cell ines which were cultured at a density of 3000 cells/well, 100 μl/well). Adherent cells were obtained from 80-90% confluent flasks and 100 μl of cells were seeded at a density of 5000 cells/well in 96-well plates by triplicate. Before addition of the compounds, adherent cells were allowed to attach to the bottom of the wells for 12 hours. In all cases, only the 60 inner wells were used to avoid any border effects.
# (§5) After 48 hours of treatment, plates with suspension cells were centrifuged at 800 g for 10 minutes and medium was removed. The plates with adherent cells were flicked to remove medium. Then, cells were incubated with 100 ul/well of medium and 20 ul/well of CellTiter 96 Aqueous One Solution reagent. After 1-3 hours of incubation at 37° C., absorbance was measured at 490 nm in a 96-well plate reader. The background absorbance was measured in wells with only cell line medium and solution reagent. Data was calculated as a percentage of total absorbance of treated cell/absorbance of non treated cells.
# OCI-Ly10 = test: Cell proliferation assay, OCI-Ly10 (ABC-DLBCL); format: cell-based; conditions: Homo sapiens, 48 hours of treatment, Table 3
# Procedure: as §1, §4, §5
# KMS28BM = test: Cell proliferation assay, KMS28BM (MM); format: cell-based; conditions: KMS-28BM, 48 hours
# Procedure: as §1, §2, §3
# HBL-2 = test: Cell proliferation assay, HBL-2 (MCL); format: cell-based; conditions: HBL2, 48 hours
# Procedure: as §1, §2, §3
# HUH7 = test: Cell proliferation assay, HUH7 (Hepatocarcinoma); format: cell-based; conditions: Homo sapiens, Huh-7, 48 hours
# Procedure: as §1, §2, §3
# SK-MEL-103 = test: Cell proliferation assay, SK-MEL-103 (Melanoma); format: cell-based; conditions: Homo sapiens, 48 hours
# Procedure: as §1, §2, §3
# UACC-62 = test: Cell proliferation assay, UACC-62 (Melanoma); format: cell-based; conditions: Homo sapiens, 48 hours
# Procedure: as §1, §2, §3
# COLO-205 = test: Cell proliferation assay, COLO-205 (Colorectal); format: cell-based; conditions: Homo sapiens, 48 hours
# Procedure: as §1, §2, §3
# PEER = test: Cell proliferation assay, PEER (ALL); format: cell-based; conditions: 48 hours
# Procedure: as §1, §2, §3
# OCI-Ly7 = test: Cell proliferation assay, OCI-Ly7 (GC-DLBCL); format: cell-based; conditions: Homo sapiens, 48 hours
# Procedure: as §1, §2, §3
# JJN3 = test: Cell proliferation assay, JJN3 (MM); format: cell-based; conditions: Homo sapiens, JJN-3, Table 5 comparison
# Procedure: as §1, §4, §5
# U87-MG = test: Cell proliferation assay, U87-MG (Glioblastoma); format: cell-based; conditions: Homo sapiens, U-87 MG, 48 hours
# Procedure: as §1, §2, §3
Compound,IC50 (DNMT3B/3L),GI50 (OCI-Ly3),GI50 (LOVO),GI50 (WM-35),GI50 (H460),GI50 (CAKI-2),GI50 (UM-UC-7),GI50 (MCF-7),GI50 (PC3),"GI50 (LAL-CUN-2; 48 hours of treatment, Table 3)","GI50 (LAL-CUN-2; ALL, Table 5 comparison)",GI50 (HUH7),GI50 (SK-MEL-103),GI50 (UACC-62),GI50 (COLO-205),GI50 (JJN3),GI50 (U87-MG),also measured
"COc1cc2c(NC3CCN(C)CC3)cc(-c3ccc(C)o3)nc2cc1OCCCN1CCCC1.O=C(O)C(F)(F)F [Compound 3-04, 6-methoxy-2-(5-methyl-2-furyl)-N-(1-methyl-4-piperidyl)-7-(3-pyrrolidin-1-ylpropoxy)quinolin-4-amine; 2,2,2-trifluoroacetic acid]",100 to 500 nM,100 to 1000 nM,1000 to 10000 nM,100 to 1000 nM,100 to 1000 nM,1000 to 10000 nM,100 to 1000 nM,100 to 1000 nM,100 to 1000 nM,100 to 1000 nM,100 to 1000 nM,≤ 100 nM,100 to 1000 nM,100 to 1000 nM,100 to 1000 nM,1000 to 10000 nM,100 to 1000 nM,GI50 (OCI-Ly10): 100 to 1000 nM; GI50 (KMS28BM): 1000 to 10000 nM; GI50 (HBL-2): 100 to 1000 nM; GI50 (PEER): 100 to 1000 nM; GI50 (OCI-Ly7): 100 to 1000 nM
COc1cc2c(NCC3CCN(C)CC3)cc(-c3ccc(C)o3)nc2cc1OCCCN1CCCC1 [Compound 3-07],500 to 1000 nM,100 to 1000 nM,100 to 1000 nM,100 to 1000 nM,100 to 1000 nM,100 to 1000 nM,100 to 1000 nM,1000 to 10000 nM,100 to 1000 nM,100 to 1000 nM,100 to 1000 nM,100 to 1000 nM,≤ 100 nM,100 to 1000 nM,100 to 1000 nM,1000 to 10000 nM,100 to 1000 nM,
